Patent publication US8158168B2, “Anti-gastritis and anti-ulcer agent containing Momordicae semen extract and momordica saponin I isolated from the same” (SK Chemicals Co., Ltd., priority 2005, dated 2012)

Tests used:
[1] = tested on: damage of gastric mucosa induced by alcohol; assay: Protective effect against stomach damage induced by alcohol (momordica saponin I, Example 2); type: in vivo, Sprague-Dawley rats; details: rat, momordica saponin I 20 mg/kg, Mucosta 100 mg/kg, 30 minutes before 1.5 mL 100% ethanol oral, observed 3 hours later; for gastric mucosa damage index ± standard deviation: Bleeding / gastric mucosa damage index ± standard deviation: Edema / gastric mucosa damage index ± standard deviation: Erosion / gastric mucosa damage index ± standard deviation: Flare / gastric mucosa damage index ± standard deviation: Hyperemia: points 0 to 3
Procedure: A rat model test was performed using 100% ethanol as stomach damage inducing factor to evaluate the protective effect of momordica saponin I for gastric mucosa. The momordica saponin I isolated in Preparative Example 5 was dissolved in 0.5% aqueous carboxymethyl cellulose solution to 2 mg/mL and was used as a test drug. Mucosta (rebamipide, Korea Otsuka Pharmaceuticals) dissolved in 0.5% aqueous carboxymethyl cellulose solution to 10 mg/mL was used as control drug.
(§1) Seven-week-old specific pathogen free (SPF) male Sprague-Dawley rats were purchased from Charles River. After 1 week of adaptation, healthy rats with a weight of 220-225 g were selected for the test. Five rats per each group were fasted for 18 hours with drinking water freely available. Momordica saponin I were administered at a dosage of 20 mg/kg and the control drug Mucosta were administered at a dosage of 100 mg/kg. After 30 minutes, 1.5 mL of 100% ethanol was orally administered. 3 hours later, the rats were anesthetized with ether and the stomach was taken out in order to evaluate the drug's effect of preventing the stomach damage. […] The damage of the stomach was classified into flare, congestion, hemorrhage, inflammation and edema. The severity of the damage was evaluated with points ranging from 0 to 3 (the higher the point, the severer the damage.).

[2] = tested on: stomach damage induced by diclofenac; assay: Protective effect of momordica saponin I against stomach damage induced by diclofenac (Example 5); type: in vivo, Sprague-Dawley rats; details: rat, diclofenac 40 mg/kg oral and at the same time momordica saponin I 20 mg/kg or Mucosta 100 mg/kg oral, observed 4 hours later; for gastric mucosa damage index ± standard deviation: Bleeding / gastric mucosa damage index ± standard deviation: Edema / gastric mucosa damage index ± standard deviation: Flare / gastric mucosa damage index ± standard deviation: Hyperemia: points 0 to 3
Procedure: Diclofenac and the test drug were administered simultaneously and the damage of gastric mucosa was observed 4 hours later. Diclofenac was dissolved in 0.5% aqueous carboxymethyl cellulose solution to […] and the test drug was prepared as in Example 2.
(§2) Seven-week-old specific pathogen free (SPF) male Sprague-Dawley rats were purchased from Charles River. After 1 week of adaptation, healthy rats with a weight of 220-225 g were selected for the test. Five rats per each group were fasted for 18 hours with drinking water freely available and diclofenac was orally administered at a dosage of 40 mg/kg and, at the same time, the test drug, or momordica saponin I, was orally administered at a dosage of 20 mg/kg and the control drug Mucosta was orally administered at a dosage of 100 mg/kg. 4 hours later, the rats were anesthetized with ether and the stomach was taken out in order to evaluate the drug's effect of treating gastritis. […] The damage of the stomach was classified into flare, congestion, hemorrhage, inflammation and edema. The severity of the damage was evaluated with points ranging from 0 to 3 (The higher the point, the severer the damage).

[3] = tested on: secretion of gastric acid; assay: Gastric acid secretion inhibition test in rats (Example 6); type: in vivo, Sprague-Dawley rats; details: 1 hour later, gastric juice diluted 10 times with distilled water
Procedure: Momordica saponin I was orally administered to Sprague-Dawley rats and the acidity in the stomach was measured in order to evaluate the effect of momordica saponin I on the secretion of gastric acid. The momordica saponin I isolated in Preparative Example 4 was dissolved in 0.5% aqueous carboxymethyl cellulose solution to concentrations of 0.5, 1.5 and 4.5 mg/mL. 7-week-old specific pathogen free (SPF) male Sprague-Dawley rats were purchased from Charles River. After 1 week of adaptation, healthy rats with a weight of 220-225 g were selected for the test. Two rats per each group were fasted for 18 hours with drinking water freely available and momordica saponin I were administered at dosages of 5, 15 and 45 mg/kg. 1 hour later, the rats were anesthetized with ether. 0.5 mL of the gastric juice taken from the stomach was diluted 10 times with distilled water to obtain a 5 mL sample. The pH of the diluted gastric juice was measured with a pH meter.

Sprague-Dawley rats = assay: Acute toxicity test for oral administration of momordica saponin I in rats (Example 8); type: in vivo; details: rat
Procedure: Acute toxicity test was performed as follows using 6-week-old specific pathogen free (SPF) Sprague-Dawley rats
To two rats per each group, the momordica saponin I isolated in Preparative Example 5 was orally administered once at a dosage of 400 mg/kg. Survival, clinical manifestations and body weight change were observed and hematological and serum biochemical analysis was performed. Autopsy was performed to observe abnormalities in abdominal and thoracic organs.

[4] = tested on: stomach damage induced by diclofenac; assay: Protective effect of momordica saponin I against stomach damage induced by diclofenac (Example 5); type: in vivo, Sprague-Dawley rats; details: rat, diclofenac 40 mg/kg oral and at the same time momordica saponin I 20 mg/kg or Mucosta 100 mg/kg oral; observed 4 hours later; points 0 to 3
[5] = tested on: damage of gastric mucosa induced by alcohol; assay: Protective effect against stomach damage induced by alcohol (Momordicae semen extract, Example 1); type: in vivo, Sprague-Dawley rats; details: rat, drugs 100 mg/kg 1 hour before 1.5 mL 100% ethanol oral, stomach observed 6 hours later
Procedure: A rat model test was performed using 100% ethanol as stomach damage inducing factor to evaluate the protective effect of the Momordicae semen extract for gastric mucosa. The Momordicae semen extract of Preparative Example 1 was dissolved in 0.5% aqueous carboxymethyl cellulose solution to 10 mg/mL and was used as a test drug. Stillen (artemisia extract, Dong-A Pharmaceutical) and Mucosta (rebamipide, Korea Otsuka Pharmaceuticals) dissolved in 0.5% aqueous carboxymethyl cellulose solution to 10 mg/mL were used as control drugs.
as §1, with “available. The Momordicae semen extract” for “available. Momordica saponin I were administered at a dosage of 20 mg/kg”, “control drugs Stillen and” for “control drug”, “After 1 hour,” for “After 30 minutes,”, “administered. 6” for “administered. 3”, “was categorized” for “was classified”, “to 3.” for “to 3 (the higher the point, the severer the damage.).”

[6] = tested on: stomach damage induced by diclofenac; assay: Healing effect on stomach damage induced by diclofenac (Example 3); type: in vivo, Sprague-Dawley rats; details: rat, diclofenac 40 mg/kg oral, drugs 100 mg/kg 6 hours after, observed 18 hours later
Procedure: A rat model test was performed using diclofenac, a representative non-steroidal anti-inflammatory drug (NSAID), as stomach damage inducing factor to evaluate the effect of the Momordicae semen extract of Example 1 for treating gastritis. The Momordicae semen extract was dissolved in 0.5% aqueous carboxymethyl cellulose solution to 10 mg/mL and was used as a test drug. Stillen (artemisia extract, Dong-A Pharmaceutical) and Mucosta (rebamipide, Korea Otsuka Pharmaceuticals) dissolved in 0.5% aqueous carboxymethyl cellulose solution to 10 mg/mL were used as control drugs.
as §2, with “40 mg/kg. After 6 hours of stomach damage inducement,” for “40 mg/kg and, at”, “the Momordicae semen extract” for “the same time, the test drug, or momordica saponin I, was orally administered at a dosage of 20 mg/kg”, “control drugs Stillen and” for “control drug”, “Mucosta were” for “Mucosta was orally”, “mg/kg. 18” for “mg/kg. 4”, “to 3.” for “to 3 (The higher the point, the severer the damage).”

[7] = tested on: stomach damage induced by diclofenac; assay: Protective effect against stomach damage induced by diclofenac, simultaneous abdominal administration (Example 4); type: in vivo, Sprague-Dawley rats; details: rat, diclofenac 40 mg/kg oral and at the same time drugs 100 mg/kg abdominally, observed 6 hours later
Procedure: Differently from Example 3, diclofenac and the test drug were administered simultaneously and the damage of gastric mucosa was observed 6 hours later. In order to prevent the direct interaction between diclofenac and the test drug, the test drug was administered abdominally. Similar to that in Example 3, diclofenac and the test drug were dissolved in 0.5% aqueous carboxymethyl cellulose solution to 10 mg/mL.
as §2, with “or the Momordicae semen extract,” for “or momordica saponin I, was orally administered at a dosage of 20 mg/kg”, “control drugs Stillen and” for “control drug”, “Mucosta were abdominally” for “Mucosta was orally”, “mg/kg. 6” for “mg/kg. 4”, “to 3.” for “to 3 (The higher the point, the severer the damage).”

CC1OC(OC2C(O)C(C(=O)O)OC(OC3CCC4(C)C(CCC5(C)C4CC=C4C6CC(C)(C)CCC6(C(=O)OC6OC(C)C(O)C(O)C6OC6OC(C)C(OC7OCC(O)C(O)C7O)C(OC7OC(CO)C(O)C(OC8OCC(O)C(O)C8O)C7O)C6O)CCC45C)C3(C)C=O)C2OC2OC(CO)C(O)C(O)C2O)C(O)C(O)C1O [Momordica saponin I, 3-O-β-D-galactopyranosyl(1->2)-[α-L-rhamnopyranosyl(1->3)]-β-D-glucuronopyranosido-28-O-β-D-xylopyranosyl(1->3)-β-D-glucopyranosyl(1->3)-[β-D-xylopyranosyl(1->4)]-α-L-rhamnopyranosyl(1->2)-β-D-fucopyranosylgypsogenin]
gastric mucosa damage index ± standard deviation: Total [1]: 4.4 ± 1.1 | gastric mucosa damage index ± standard deviation: Bleeding [1]: 0.9 ± 0.2 | gastric mucosa damage index ± standard deviation: Edema [1]: 1 ± 0.3 | gastric mucosa damage index ± standard deviation: Erosion [1]: 0.5 ± 0.1 | gastric mucosa damage index ± standard deviation: Flare [1]: 1.1 ± 0.2 | gastric mucosa damage index ± standard deviation: Hyperemia [1]: 0.9 ± 0.3 | gastric mucosa damage index ± standard deviation: Total [2]: 5.2 ± 1.2 | gastric mucosa damage index ± standard deviation: Bleeding [2]: 0.7 ± 0.2 | gastric mucosa damage index ± standard deviation: Edema [2]: 1 ± 0.2 | gastric mucosa damage index ± standard deviation: Flare [2]: 1.3 ± 0.2 | gastric mucosa damage index ± standard deviation: Hyperemia [2]: 0.9 ± 0.3 | Acidity in the stomach of rats (pH ± standard deviation) ([3]; 5 mg/kg oral): 3.3 ± 0.1 pH | Acidity in the stomach of rats (pH ± standard deviation) ([3]; 15 mg/kg oral): 4.3 ± 0.8 pH | Acidity in the stomach of rats (pH ± standard deviation) ([3]; 45 mg/kg oral): 5.2 ± 0.6 pH | clinical manifestation or death (Sprague-Dawley rats; once at a dosage of 400 mg/kg): no noticeable clinical manifestation or death | toxicity in body weight change, hematological and serum biochemical analysis and autopsy (Sprague-Dawley rats; once at a dosage of 400 mg/kg): no toxicity was found | minimum oral administration lethal dose (LD50) (Sprague-Dawley rats; single administration): ≥ 400 mg/kg | gastric mucosa damage index ± standard deviation: Erosion [4]: 1.3 ± 0.3

O=C(NC(Cc1cc(=O)[nH]c2ccccc12)C(=O)O)c1ccc(Cl)cc1 (stereo not drawn) [Mucosta, rebamipide]
gastric mucosa damage index: Total [5]: 8.1 ± 0.8 | gastric mucosa damage index: Bleeding ([5]; points 0 to 3): 1.5 ± 0.2 | gastric mucosa damage index: Edema ([5]; points 0 to 3): 1.3 ± 0.2 | gastric mucosa damage index: Erosion ([5]; points 0 to 3): 1.8 ± 0.2 | gastric mucosa damage index: Flare ([5]; points 0 to 3): 1.3 ± 0.2 | gastric mucosa damage index: Hyperemia ([5]; points 0 to 3): 1.3 ± 0.4 | gastric mucosa damage index ± standard deviation: Total [1]: 6.1 ± 1.2 | gastric mucosa damage index ± standard deviation: Bleeding [1]: 1.4 ± 0.2 | gastric mucosa damage index ± standard deviation: Edema [1]: 1.2 ± 0.3 | gastric mucosa damage index ± standard deviation: Erosion [1]: 0.9 ± 0.3 | gastric mucosa damage index ± standard deviation: Flare [1]: 1.2 ± 0.2 | gastric mucosa damage index ± standard deviation: Hyperemia [1]: 1.4 ± 0.2 | gastric mucosa damage index: Total [6]: 7.4 ± 0.7 | gastric mucosa damage index: Bleeding ([6]; points 0 to 3): 1.2 ± 0.2 | gastric mucosa damage index: Edema ([6]; points 0 to 3): 2.2 ± 0.2 | gastric mucosa damage index: Erosion ([6]; points 0 to 3): 2.4 ± 0.2 | gastric mucosa damage index: Flare ([6]; points 0 to 3): 0.8 ± 0.4 | gastric mucosa damage index: Hyperemia ([6]; points 0 to 3): 0.8 ± 0.4 | gastric mucosa damage index: Total [7]: 9.8 ± 1.2 | gastric mucosa damage index: Bleeding ([7]; points 0 to 3): 1.4 ± 0.5 | gastric mucosa damage index: Edema ([7]; points 0 to 3): 1.2 ± 0.2 | gastric mucosa damage index: Erosion ([7]; points 0 to 3): 2.4 ± 0.4 | gastric mucosa damage index: Flare ([7]; points 0 to 3): 2.6 ± 0.2 | gastric mucosa damage index: Hyperemia ([7]; points 0 to 3): 2.2 ± 0.4 | gastric mucosa damage index ± standard deviation: Total [2]: 8.5 ± 1.5 | gastric mucosa damage index ± standard deviation: Bleeding [2]: 1.5 ± 0.3 | gastric mucosa damage index ± standard deviation: Edema [2]: 1.2 ± 0.1 | gastric mucosa damage index ± standard deviation: Flare [2]: 2.3 ± 0.3 | gastric mucosa damage index ± standard deviation: Hyperemia [2]: 1.3 ± 0.4 | gastric mucosa damage index ± standard deviation: Erosion [4]: 2.2 ± 0.4
